Test results: patent EP4603105A1, “PHARMACEUTICAL COMPOSITION CONTAINING CYCLIC COMPOUND HAVING SELECTIVE KRAS INHIBITORY EFFECT AGAINST HRAS AND NRAS” (CHUGAI SEIYAKU KABUSHIKI KAISHA, priority 2022, dated 2024)
Where a SMILES comes first, the peptide text is derived from it. Bridges are numbered along the chain shown (N, C = ends). [ ]: non-standard residue; d: D form. The star is where a group is joined. hPhe(3-Cl-4-CF3) = N[C@@H](CCc1ccc(C(F)(F)F)c(Cl)c1)C(=O)O; NPrPhe(4-Me) = CCCN[C@@H](Cc1ccc(C)cc1)C(=O)O; NMeGly(cPent) = CN[C@H](C(=O)O)C1CCCC1; NMeD = CN[C@@H](CC(=O)O)C(=O)O; NMeL = CN[C@@H](CC(C)C)C(=O)O; Pip = O=C(O)[C@@H]1CCCCN1; Morpholide = C1CN(*)CCO1; Ac5c = NC1(C(=O)O)CCCC1; Aze = O=C(O)[C@@H]1CCN1; Sar = CNCC(=O)O

Assays:
[1] = molecular target: GDP-bound KRAS wild-type protein (Homo sapiens, UniProt P01116); test: Binding to KRAS by surface plasmon resonance (SPR), dissociation constant KD
How it was run: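 GDP-bound biotin-Avi RAS captured at ~100–300 RU, 30°C, pH 7.4 HBS containing 10 µM GDP, 10 mM MgCl2, 1 mM DTT, 0.01% Tween 20 and 4% DMSO. KD by 1:1 fitting.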

HRAS wild-type protein = HRAS wild-type protein (Homo sapiens, UniProt P01112); test: Binding to HRAS by surface plasmon resonance (SPR), KD and KD ratio to KRAS
How it was run: (§1)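 Affinity is measured by surface plasmon resonance at 30°C against captured, GDP-loaded RAS carrying a biotinylated Avi tag. Compounds are titrated by single-cycle kinetics, and KD comes from a 1:1 fit.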

[2] = molecular target: GDP-bound NRAS wild-type protein (Homo sapiens, UniProt P01111); test: Binding to NRAS by surface plasmon resonance (SPR), KD and KD ratio to KRAS
How it was run: as §1

[3] = system: human lung cancer strain NCI-H441; format: cell-based
How it was run: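 Readout: […] after the ATP-based reagent. Compound: serial dilutions in dimethyl sulfoxide.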

[4] = ratio of KD for HRAS wild-type protein to KD for KRAS
[5] = ratio of KD for GDP-bound NRAS wild-type protein to KD for KRAS
[6] = Single Cycle Kinetics, 1:1 binding model
[7] = ratio of the KD value with respect to HRAS wild-type protein to the KD value with respect to KRAS
[8] = ratio of the KD value with respect to GDP-bound NRAS wild-type protein to the KD value with respect to KRAS

Sequence of GDP-bound KRAS wild-type protein (P01116 1-188 isoform P01116-2): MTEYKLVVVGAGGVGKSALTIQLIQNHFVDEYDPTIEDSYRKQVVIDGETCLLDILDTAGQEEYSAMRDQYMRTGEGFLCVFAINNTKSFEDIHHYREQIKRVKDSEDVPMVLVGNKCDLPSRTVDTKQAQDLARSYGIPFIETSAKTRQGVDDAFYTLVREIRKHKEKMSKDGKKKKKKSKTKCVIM
Sequence of HRAS wild-type protein (P01112 whole entry): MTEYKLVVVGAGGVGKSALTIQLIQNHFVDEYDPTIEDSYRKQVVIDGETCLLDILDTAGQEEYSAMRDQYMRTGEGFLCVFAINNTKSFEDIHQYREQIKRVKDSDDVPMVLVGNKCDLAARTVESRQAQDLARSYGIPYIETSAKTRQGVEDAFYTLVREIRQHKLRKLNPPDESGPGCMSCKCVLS
Sequence of GDP-bound NRAS wild-type protein (P01111 whole entry): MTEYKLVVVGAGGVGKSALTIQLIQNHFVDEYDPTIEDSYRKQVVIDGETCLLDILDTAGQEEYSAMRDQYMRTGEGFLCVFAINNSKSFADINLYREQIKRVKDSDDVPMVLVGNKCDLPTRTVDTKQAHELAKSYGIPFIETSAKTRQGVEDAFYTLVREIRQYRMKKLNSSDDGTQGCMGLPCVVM

| Compound | Kd ([1]; 1:1 binding model) | HRAS /KRAS (HRAS wild-type protein; [4]) | NRAS /KRAS [2, 5] | IC50 [3] | Kd [1, 6] | HRAS /KRAS (HRAS wild-type protein; [7]) | NRAS /KRAS [2, 8] | Kd ([1]; Single Cycle Kinetics) |
| --- | --- | --- | --- | --- | --- | --- | --- | --- |
| CCCN1C(=O)[C@@H]2CCN2C(=O)[C@@H]2CCCCN2C(=O)[C@H]([C@@H](C)CC)NC(=O)[C@H](CC(C)C)N(C)C(=O)C[C@@H](C(=O)N2CCOCC2)N(C)C(=O)[C@H](C2CCCC2)N(C)C(=O)C2(CCCC2)NC(=O)[C@@H]2CCCN2C(=O)[C@H](CCc2ccc(C(F)(F)F)c(Cl)c2)NC(=O)CN(C)C(=O)[C@@H]1Cc1ccc(C)cc1 [PP0070] ([NMeL]I[Pip][Aze][NPrPhe(4-Me)][Sar][hPhe(3-Cl-4-CF3)]P[Ac5c][NMeGly(cPent)][NMeD]-Morpholide; lactam N-11) | 0.16 nM | B (a compound having 3 or more and less than 10 is denoted as B) | C (A compound having a KD ratio of 0.1 or more and less than 3 is denoted as C) | 2.1 nM | – | – | – | – |
| CCC[C@H]1C(=O)N[C@@H]([C@@H](C)CC)C(=O)N(C)CC(=O)N(C)[C@H]2C/C=C\CCN(C2=O)[C@@H](Cc2ccc(C(F)(F)F)cc2)C(=O)N(C)CC(=O)N[C@@H](CCc2ccc3sc(F)c(C)c3c2)C(=O)N2C[C@H](OCC)C[C@H]2C(=O)NC2(CC(C)(C)C2)C(=O)N(C)[C@@H](C2CCCC2)C(=O)N(C)[C@H](C(=O)N(C)C)CC(=O)N1C [PP2948] | 0.55 nM | A (a compound having 10 or more and less than 20 is denoted as A) | A (a compound having 10 or more and less than 20 is denoted as A) | 3.3 nM | – | – | – | – |
| CC[C@H](C)[C@@H]1NC(=O)[C@H](CC(C)C)N(C)C(=O)C[C@@H](C(=O)N2CCOCC2)NC(=O)[C@H](C2CCCC2)N(C)C(=O)C2(CCCC2)NC(=O)[C@@H]2CCCN2C(=O)[C@H](CCc2cc(F)c(C(F)(F)F)c(F)c2)NC(=O)CN(C)C(=O)[C@H](Cc2ccc(C(F)(F)F)cc2)N2CCCC[C@@H](C2=O)N(C)C(=O)CN(C)C1=O [PP0541] | – | – | – | 83.3 nM | 0.47 nM | B (a compound having 3 or more and less than 10 is denoted as B) | B (a compound having 3 or more and less than 10 is denoted as B) | – |
| CCCN(C)C(=O)[C@@H]1CC(=O)N(C)[C@@H](CC(C)C)C(=O)N[C@@H]([C@@H](C)CC)C(=O)N(C)CC(=O)N(C)[C@H]2C/C=C\CCN(C2=O)[C@@H](Cc2ccc(C(F)(F)F)cc2)C(=O)N(C)CC(=O)N[C@@H](CCc2cc(F)c(C(F)(F)F)c(F)c2)C(=O)N2C[C@H](OCC)C[C@H]2C(=O)NC2(COC2)C(=O)N(C)[C@@H](C2CCCC2)C(=O)N1C [PP1938] | – | – | – | 34.6 nM | 0.34 nM | A (a compound having 10 or more and less than 20 is denoted as A) | AA (a compound having 20 or more is denoted as AA) | – |
| C#CC[C@H]1C(=O)N[C@@H]([C@@H](C)CC)C(=O)N(C)CC(=O)N(C)[C@H]2C/C=C\CCN(C2=O)[C@@H](Cc2ccc(C(F)(F)F)cc2)C(=O)N(C)CC(=O)N[C@@H](CCc2ccc(C(F)(F)F)c(OC)c2)C(=O)N2C[C@H](F)C[C@H]2C(=O)NC2(CC(C)(C)C2)C(=O)N(C)[C@@H](CCC=C)C(=O)N(C)[C@H](C(=O)N(C)C)CC(=O)N1C [PP3126] | 0.81 nM | A (a compound having 10 or more and less than 20 is denoted as A) | AA (a compound having 20 or more is denoted as AA) | 116 nM | – | – | – | – |
| CCO[C@@H]1C[C@H]2C(=O)NC3(CC(C)(C)C3)C(=O)N(C)[C@@H](C3CCCC3)C(=O)N(C)[C@H](C(=O)N(C)CC)CC(=O)N(C)[C@@H]([C@H](C)OC)C(=O)N[C@@H]([C@@H](C)CC)C(=O)N3CCC[C@H]3C(=O)N(C)[C@H]3C/C=C\CCN(C3=O)[C@@H](Cc3ccc(C)cc3)C(=O)N(C)CC(=O)N[C@@H](CCc3ccc(C(F)(F)F)c(OC)c3)C(=O)N2C1 [PP3161] | 2.3 nM | A (a compound having 10 or more and less than 20 is denoted as A) | A (a compound having 10 or more and less than 20 is denoted as A) | 150 nM | – | – | – | – |
| CCO[C@@H]1C[C@H]2C(=O)NC3(CCC3)C(=O)N(C)[C@@H](C3CCCC3)C(=O)N(C)[C@H](C(=O)N3CCOCC3)CC(=O)N(C)[C@@H](CC(C)C)C(=O)N[C@@H]([C@H](C)CC)C(=O)N(C)CC(=O)N(C)[C@H]3CCCCN(C3=O)[C@@H](Cc3ccc(C(F)(F)F)cc3)C(=O)N(C)CC(=O)N[C@@H](CCc3cc(F)c(C(F)(F)F)c(F)c3)C(=O)N2C1 [PP0806] | – | B (a compound having 3 or more and less than 10 is denoted as B) | B (a compound having 3 or more and less than 10 is denoted as B) | 16.9 nM | – | – | – | 0.19 nM |
| CCO[C@@H]1C[C@H]2C(=O)NC3(CC(C)(C)C3)C(=O)N(C)[C@@H](C3CCCC3)C(=O)N(C)[C@H](C(=O)N(C)CC)CC(=O)N(C)[C@@H](CC(C)C)C(=O)N[C@@H]([C@@H](C)CC)C(=O)N(C)CC(=O)N(C)[C@H]3C/C=C\CCN(C3=O)[C@@H](Cc3ccc(C(F)F)cc3)C(=O)N(C)CC(=O)N[C@@H](CCc3cc(C)c(C(F)F)c(Cl)c3)C(=O)N2C1 [PP3146] | 1.4 nM | A (a compound having 10 or more and less than 20 is denoted as A) | A (a compound having 10 or more and less than 20 is denoted as A) | 41.8 nM | – | – | – | – |
